Paper PMC6807911, “A structure-based approach towards the identification of novel antichagasic compounds: Trypanosoma cruzi carbonic anhydrase inhibitors” (Journal of Enzyme Inhibition and Medicinal Chemistry, 2019)

Target: T1, TcCA (Trypanosoma cruzi carbonic anhydrase) (Trypanosoma cruzi, UniProt Q4CVY4)
T1 construct: gene Tc00.1047053509597.20
T1 sequence (Q4CVY4 39-638): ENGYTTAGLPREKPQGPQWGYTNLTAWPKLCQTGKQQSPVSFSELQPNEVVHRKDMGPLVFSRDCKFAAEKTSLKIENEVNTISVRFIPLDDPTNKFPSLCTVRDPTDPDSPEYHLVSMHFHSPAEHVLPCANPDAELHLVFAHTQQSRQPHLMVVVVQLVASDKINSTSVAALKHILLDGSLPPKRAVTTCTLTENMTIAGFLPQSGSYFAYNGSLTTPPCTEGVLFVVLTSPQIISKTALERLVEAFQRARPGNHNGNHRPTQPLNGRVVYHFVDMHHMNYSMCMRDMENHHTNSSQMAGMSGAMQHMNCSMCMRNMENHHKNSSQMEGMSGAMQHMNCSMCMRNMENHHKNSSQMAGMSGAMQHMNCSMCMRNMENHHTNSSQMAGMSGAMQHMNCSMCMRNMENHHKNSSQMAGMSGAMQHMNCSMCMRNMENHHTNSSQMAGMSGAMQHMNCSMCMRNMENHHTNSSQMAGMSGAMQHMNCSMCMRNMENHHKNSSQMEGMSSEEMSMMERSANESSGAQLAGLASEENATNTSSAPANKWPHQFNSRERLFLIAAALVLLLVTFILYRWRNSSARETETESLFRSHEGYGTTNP
Test: stopped-flow CO2 hydration assay
Assay type: biochemical
Details: read-out: KITcCA
Excerpt: stopped-flow CO2 hydration assay on TcCA (Trypanosoma cruzi carbonic anhydrase)

Row | Compound | Ki [nM]
1 | COC(=O)CCNS(=O)(=O)NCCc1ccccc1 [compound 7, 7] | 7250
2 | CC1=CC(=O)NS(=O)(=O)O1 [Acesulphame] | 2240
3 | O=S(=O)(O)NC1CCCCC1 [Sodium cyclamate] | 348
4 | COC(=O)[C@H](Cc1ccccc1)NS(=O)(=O)NCC(C)C [compound 5, 5] | 261
